Laboratory results published in US20080274892A1, “Novel Haloalkylsulfonanilide Derivative, Herbicide, and Method of Use Thereof” (priority 2005, published 2008).

Assays:
[1] = system: paddy rice plant (cultivar: Nihonbare); test: Test Example 3: phytotoxicity test for transplanted paddy rice plant; assay type: in vivo; details: 21 days after treatment; for Phytotoxicity to paddy rice: transplanted rice
Experimental: (§1) The standard of judgment for herbicidal efficacy (degree of growth inhibition) and phytotoxicity 4 . . . 90%-100% of herbicidal efficacy or phytotoxicity 3 . . . 70%-89% of herbicidal efficacy or phytotoxicity 2 . . . 40%-69% of herbicidal efficacy or phytotoxicity 1 . . . 1%-39% of herbicidal efficacy or phytotoxicity 0 . . . 0% of herbicidal efficacy or phytotoxicity
A 75 cm^2 plastic pot was filled with soil (clay loam), and water was added so that the soil was submerged under 5 cm depth of water. Two paddy rice plant (cultivar: Nihonbare) at two leaves stage were transplanted at the depth of 1 cm and kept in a hot house. […] The pot was kept in a hot house for 21 days after the treatment and the phytotoxicity was investigated and evaluated according to the standard in Test Example 1 by comparing with the untreated control. “-” in the table represents test not done.

[2] = system: false pimpernel; test: Test Example 1: herbicidal efficacy on rice paddy weeds pre-emergence; assay type: in vivo, Lindernia pyxidaria; details: dosage 300 g/ha, 21 days
Experimental: (§2) A 75 cm^2 plastic pot was filled with soil (clay loam) and planted seeds of bulrush which is a rice paddy weed. After covering the top with 75 cm^3 soil mixed with seeds of false pimpernel, the pot was filled with water so that the soil submerged under 5 cm depth of water. The predetermined effective dosage ([…]) of a formulation containing the compound of the present invention prepared according to Formulation Example 1-4 as an active ingredient was diluted in water and added to the pot water surface dropwise. The pot was kept in a hot house for 21 days and the herbicidal efficacy was investigated. The herbicidal efficacy was evaluated according to the following standard by comparing with untreated control. “-” in the table represents test not done.
as §1

[3] = system: bulrush; test: as above; assay type: in vivo, Scirpus juncoides; details: 21 days
Experimental: as §2, §1

[4] = system: bulrush; test: Test Example 2: herbicidal efficacy on rice paddy weeds post-emergence; assay type: in vivo, Scirpus juncoides; details: 21 days after treatment
Text: as §1
(§3) A 75 cm^2 plastic pot was filled with soil (clay loam) and planted seeds of barnyard glass and bulrush which is a rice paddy weed. After covering the top with 75 cm^3 soil mixed with seeds of false pimpernel, the pot was filled with water so that the soil submerged under 5 cm depth of water and kept in a hot house. […] The pot was kept in a hot house for 21 days after the treatment and the herbicidal efficacy was investigated and evaluated according to the standard in Test Example 1 by comparing with the untreated control. “-” in the table represents test not done.

[5] = system: false pimpernel; test: as above; assay type: in vivo, Lindernia pyxidaria; details: dosage 300 g/ha; post-emergence, one leaf stage; 21 days after treatment
Text: as §1, §3

[6] = system: barnyard glass; test: as above; assay type: in vivo, Echinochloa crus-galli; details: 21 days after treatment
Text: as §1, §3

[7] = dosage 300 g/ha, post-emergence, one leaf stage
[8] = dosage 1000 g/ha, post-emergence, one leaf stage
[9] = dosage 1000 g/ha active ingredient, post-emergence treatment at one leaf stage, vs untreated control

Question: Which “Phytotoxicity to paddy rice” value ([1]; dosage 300 g/ha) does the source give for `CC(C)(C)OC(=O)NCC1CN(Cc2ccccc2NS(=O)(=O)C(F)(F)F)C(=O)O1` (racemic) [1-106] here?
Answer: The value was 0 (0% of herbicidal efficacy or phytotoxicity).

Question: And the “False pimpernel pre (herbicidal efficacy grade)” value (“False pimpernel pre” for short) [2]?
Answer: The value was 2 (40%-69% of herbicidal efficacy or phytotoxicity).

Question: What about the “Bulrush pre (herbicidal efficacy grade)” value ([3]; dosage 300 g/ha) of the same molecule?
Answer: The value was 4 (90%-100% of herbicidal efficacy or phytotoxicity).

Question: And the “Bulrush post (herbicidal efficacy grade)” value [4, 7]?
Answer: Its value is 4 (90%-100% of herbicidal efficacy or phytotoxicity).

Question: And the “False pimpernel post (herbicidal efficacy grade)” value (from here on “False pimpernel post”) [5]?
Answer: The value was 2 (40%-69% of herbicidal efficacy or phytotoxicity).

Question: And the “Burnyard grass post (herbicidal efficacy grade)” value (shortened to “Burnyard grass post”) [6, 7]?
Answer: Its value is 0 (0% of herbicidal efficacy or phytotoxicity).

Question: With `CC1(C)OC(=O)N(Cc2cc(Cl)ccc2NS(=O)(=O)C(F)(F)F)C1=O` [1-211] as the molecule, how does the “Phytotoxicity to paddy rice” value ([1]; dosage 1000 g/ha, treated 5 days after transplantation) read?
Answer: Its value is 4 (90%-100% of herbicidal efficacy or phytotoxicity).

Question: What about the “Bulrush pre (herbicidal efficacy grade)” value ([3]; dosage 1000 g/ha) of the same molecule?
Answer: The value was 4 (90%-100% of herbicidal efficacy or phytotoxicity).

Question: What about the “Bulrush post (herbicidal efficacy grade)” value [4, 8] of the same molecule?
Answer: The value was 4 (90%-100% of herbicidal efficacy or phytotoxicity).

Question: And the “Burnyard grass post” value [6, 8]?
Answer: Its value is 4 (90%-100% of herbicidal efficacy or phytotoxicity).

Question: Which “Phytotoxicity to paddy rice (grade)” value ([1]; dosage 1000 g/ha active ingredient, treated 5 days after transplantation, vs untreated control) does the source give for `CC1(C)CN(Cc2cccc(O)c2NS(=O)(=O)C(F)(F)F)C(=O)O1` [1-214] here?
Answer: Its value is 0 (0% of herbicidal efficacy or phytotoxicity).

Question: What about the “Bulrush pre (herbicidal efficacy grade)” value ([3]; dosage 1000 g/ha active ingredient, vs untreated control) of the same molecule?
Answer: Its value is 1 (1%-39% of herbicidal efficacy or phytotoxicity).

Question: What about the “Bulrush post (herbicidal efficacy grade)” value [4, 9] of the same molecule?
Answer: The value was 1 (1%-39% of herbicidal efficacy or phytotoxicity).

Question: And the “Burnyard grass post” value [6, 9]?
Answer: The value was 0 (0% of herbicidal efficacy or phytotoxicity).

Question: `CC(C)COC(=O)N(c1ccccc1CN1C(=O)OC(C)C1=O)S(=O)(=O)C(F)(F)F` (stereo not shown) [Compound 1-191] was tested. Which “Phytotoxicity to paddy rice” value ([1]; dosage 300 g/ha) did it give?
Answer: The value was 0 (0% of herbicidal efficacy or phytotoxicity).

Question: And the “False pimpernel pre” value [2]?
Answer: The value was 4 (90%-100% of herbicidal efficacy or phytotoxicity).

Question: And the “Bulrush pre (herbicidal efficacy grade)” value ([3]; dosage 300 g/ha)?
Answer: The value was 4 (90%-100% of herbicidal efficacy or phytotoxicity).

Question: And the “Bulrush post (herbicidal efficacy grade)” value [4, 7]?
Answer: Its value is 4 (90%-100% of herbicidal efficacy or phytotoxicity).

Question: What about the “False pimpernel post” value [5] of the same molecule?
Answer: Its value is 2 (40%-69% of herbicidal efficacy or phytotoxicity).

Question: For `CCC1OC(=O)N(Cc2ccccc2N(C(=O)OCC(C)C)S(=O)(=O)C(F)(F)F)C1=O` (stereo not shown) [Compound 1-193], which “Phytotoxicity to paddy rice” value ([1]; dosage 300 g/ha) is on record?
Answer: The value was 0 (0% of herbicidal efficacy or phytotoxicity).

Question: And the “False pimpernel pre” value [2]?
Answer: The value was 4 (90%-100% of herbicidal efficacy or phytotoxicity).

Question: What about the “Bulrush pre (herbicidal efficacy grade)” value ([3]; dosage 300 g/ha) of the same molecule?
Answer: The value was 4 (90%-100% of herbicidal efficacy or phytotoxicity).

Question: And the “Bulrush post (herbicidal efficacy grade)” value [4, 7]?
Answer: The value was 4 (90%-100% of herbicidal efficacy or phytotoxicity).

Question: What about the “False pimpernel post” value [5] of the same molecule?
Answer: Its value is 1 (1%-39% of herbicidal efficacy or phytotoxicity).

Question: Which “Phytotoxicity to paddy rice” value ([1]; dosage 300 g/ha) does the source give for `CCc1cn(Cc2ccccc2NS(=O)(=O)C(F)(F)F)c(=O)o1` [Compound 1-209] here?
Answer: The value was 1 (1%-39% of herbicidal efficacy or phytotoxicity).

Question: What about the “False pimpernel pre” value [2] of the same molecule?
Answer: Its value is 4 (90%-100% of herbicidal efficacy or phytotoxicity).

Question: What about the “Bulrush pre (herbicidal efficacy grade)” value ([3]; dosage 300 g/ha) of the same molecule?
Answer: The value was 3 (70%-89% of herbicidal efficacy or phytotoxicity).

Question: And the “Bulrush post (herbicidal efficacy grade)” value [4, 7]?
Answer: Its value is 3 (70%-89% of herbicidal efficacy or phytotoxicity).

Question: What about the “False pimpernel post” value [5] of the same molecule?
Answer: The value was 2 (40%-69% of herbicidal efficacy or phytotoxicity).

Question: `CCc1cn(Cc2ccccc2N(C(=O)OCC(C)C)S(=O)(=O)C(F)(F)F)c(=O)o1` [Compound 1-210] was tested. Which “Phytotoxicity to paddy rice” value ([1]; dosage 300 g/ha) did it give?
Answer: Its value is 0 (0% of herbicidal efficacy or phytotoxicity).

Question: And the “False pimpernel pre” value [2]?
Answer: Its value is 4 (90%-100% of herbicidal efficacy or phytotoxicity).

Question: And the “Bulrush pre (herbicidal efficacy grade)” value ([3]; dosage 300 g/ha)?
Answer: The value was 3 (70%-89% of herbicidal efficacy or phytotoxicity).

Question: And the “Bulrush post (herbicidal efficacy grade)” value [4, 7]?
Answer: Its value is 4 (90%-100% of herbicidal efficacy or phytotoxicity).

Question: What about the “False pimpernel post” value [5] of the same molecule?
Answer: Its value is 0 (0% of herbicidal efficacy or phytotoxicity).
